In paper PMC10296238, “A Magnetic-Bead-Based Immunoassay with a Newly Developed Monoclonal Antibody for Rapid and Highly Sensitive Detection of Forchlorfenuron” (Biosensors, 2023):
In brackets after ≈: the same amount, converted by molar mass.

How the values were obtained:
anti-CPPU mAb 14G1–HRP [1] = assay: direct competitive magnetic-bead (MB)-based assay with mAb 14G1–HRP; assay type: binding, mouse; settings: for MB-Based Assay CR: CR = IC50 of CPPU/IC50 of analyte × 100%
Experimental: A direct competitive MB-based assay was developed as follows. First, the 96-well microtiter plate was pre-sealed with 5% skim milk at 37 °C for 1 h. After washing with PBST, MB–CPPU–BSA (10 μg/μL, 10 μL per well) was added to the 96-well plate. Subsequently, 50 μL of serially diluted CPPU standards and 50 μL of diluted mAb–HRP (1:3200) were mixed into the wells. The plate was shaken well and incubated at 37 °C for 20 min and then placed on a magnetic base to precipitate the MB. Then, the supernatant was discarded, and the plate was washed three times with PBST. After washing, TMB substrate (100 μL per well) was added and incubated for 15 min at 37 °C. The reaction was stopped with 2 M H2SO4, and the absorbance was measured at a wavelength of 450 nm.
The reaction parameters greatly influence assay sensitivity. Therefore, the experimental parameters including concentrations of MB–CPPU–BSA and mAb–HRP, ionic strength, pH value, and organic solvent content in buffer were investigated to improve the sensitivity of the MB-based assay. After optimization, the standard curve for the MB-based assay was generated by plotting the B/B0 (B and B0 were defined as the OD450 in the presence and absence of CPPU, respectively) against the logarithm of CPPU concentration. The 50% inhibitory concentration value (IC50) calculated from the curves was used to evaluate assay sensitivity.
(§1) The cross-reactivities (CRs) of the developed MB-based assay and icELISA with compounds structurally related to CPPU were used to evaluate the selectivity of the assays. The CR value of each compound was calculated as follows: CR (%) = (IC50 of CPPU/IC50 of analyte) × 100%.
To obtain better analytical performance of the MB-based assay, the reaction conditions were investigated. First of all, the working concentrations of MB–CPPU–BSA and mAb 14G1–HRP were determined by checkerboard titration as 0.1 mg/mL and 1:6400 dilution, respectively (Table S1). Then, the influence of other parameters on the assay was also optimized, in which the IC50 value was used as the main criterion. The effects of different ionic strengths and different pH values of the PBS solution on antigen–antibody binding in the MB-based assay were evaluated (Figure S4a,b). […] The optimal methanol concentration was selected to be 5% for the lower IC50. To shorten the detection duration, the incubation time for the competitive reaction between MB–CPPU–BSA and free-CPPU for binding to mAb–HRP tracer was optimized in sequence. […] Shorter incubation times may result in insufficient antigen–antibody binding, while longer incubation times not only further increased the maximum intensity but also led to higher background signals from non-specific binding. Therefore, incubation was stopped after 20 min, and beads were washed to remove unbound antibody.

anti-CPPU mAb 14G1 = assay: conventional indirect competitive ELISA (icELISA) based on mAb 14G1; assay type: binding, mouse; settings: for icELISA CR: CR = IC50 of CPPU/IC50 of analyte × 100%
Experimental: A conventional icELISA was developed for CPPU detection as follows: 0.5 μg/mL CPPU–BSA was dropped into the 96-well microplate (100 μL/well) and incubated overnight at 4 °C. The plates were blocked at 37 °C with 5% skim milk in PBST (PBS containing 0.05% Tween 20) for 1 h. After washing the plate with PBST three times, 50 μL of mAb 14G1 and 50 μL of sequentially diluted CPPU standard solution were added. The plate was incubated for 1 h at 37 °C, washed three times, and 100 μL/well of goat anti-mouse lgG-HRP solution was added for another 1 h of incubation. After washing six times, 100 μL/well of TMB substrate was added to the plate and reacted for 15 min. Finally, 2 M H2SO4 (50 μL/well) was added into the plate to stop the reaction, and the OD450 value was read with a microplate reader.
as §1
The experimental conditions of conventional icELISA were optimized. The evaluation criteria were the 50% inhibition concentration (IC50; representing the sensitivity) and maximum absorbance (ODmax) of the negative control. The working concentrations of the CPPU–BSA conjugate and mAb 14G1 were primarily optimized by a checkerboard titration. The concentration of CPPU–BSA coated in the plate was diluted from 2.0 μg/mL to 0.25 μg /mL, and anti-CPPU mAb 14G1 was diluted in a series of two-fold dilutions from 1:2000. […] After optimization, the concentrations of CPPU–BSA and mAb 14G1 were 0.5 μg/mL and 0.016 μg/mL for icELISA (Figure S2a). Then, the process parameters of icELISA were optimized through single-factor experiments. The influence of blocking reagents commonly used in ELISA systems, OVA, skim milk, and BSA, were evaluated and compared for their effectiveness in reducing nonspecific binding. Finally, 5% skim milk was selected, which gave a minimum IC50 value (Figure S2b). CPPU is a lipophilic, small organic compound, and methanol has been reported to be a more acceptable co-solvent for CPPU during the immunochemical reaction. The effect of methanol concentration on immunoassay performance was assessed. […] The ionic strength of 136 mM, which provided the lowest IC50 value, was selected. The pH value is one of the key factors influencing the characteristics of the assay. From Figure S2e, the value of pH 7.4 was selected as the optimum for the assay based on the favorable IC50 value. Under the optimal assay conditions, an indirect competitive ELISA standard curve was established (Figure 3). […] Moreover, the assay has a linear range (IC20–IC80) of 0.005–0.231 ng/mL.

mAb (s5#34) = settings: cited from earlier work
pAb = system: pAb; parameters: method as in earlier work; settings: cited from earlier work
anti-CPPU mAb 14G1–HRP [2] = assay: direct competitive magnetic-bead (MB)-based assay with mAb 14G1–HRP; assay type: binding, mouse
mAb against CPPU = settings: cited from earlier work
mAb = settings: cited from earlier work
zebrafish = settings: cited from earlier work
rats = settings: cited from earlier work
mAb, P6#42 = settings: cited from earlier work

## Cc1ccc(NC(=O)N(C)C)cc1Cl [Chlorotoluron]
anti-CPPU mAb 14G1–HRP [1]
  MB-Based Assay CR: <0.6%
anti-CPPU mAb 14G1–HRP [1]; optimized conditions
  MB-Based Assay IC50: >1.0 ng/mL
anti-CPPU mAb 14G1
  icELISA CR: <1.0%
anti-CPPU mAb 14G1; optimal assay conditions
  icELISA IC50: >2.5 ng/mL

## Clc1ccccc1-c1nnc(-c2ccccc2Cl)nn1 [Clofentezine]
anti-CPPU mAb 14G1–HRP [1]
  MB-Based Assay CR: <0.6%
anti-CPPU mAb 14G1–HRP [1]; optimized conditions
  MB-Based Assay IC50: >1.0 ng/mL
anti-CPPU mAb 14G1
  icELISA CR: <1.0%
anti-CPPU mAb 14G1; optimal assay conditions
  icELISA IC50: >2.5 ng/mL

## CN(C)C(=O)Nc1ccc(Cl)c(Cl)c1 [Diuron]
anti-CPPU mAb 14G1–HRP [1]
  MB-Based Assay CR: <0.6%
anti-CPPU mAb 14G1–HRP [1]; optimized conditions
  MB-Based Assay IC50: >1.0 ng/mL
anti-CPPU mAb 14G1
  icELISA CR: <1.0%
anti-CPPU mAb 14G1; optimal assay conditions
  icELISA IC50: >2.5 ng/mL

## O=C(Nc1ccccc1)Nc1ccnc(Cl)c1 [Forchlorfenuron (CPPU), Forchlorfenuron]
mAb (s5#34)
  dcELISA (mAb) LOD: 0.01 ng/mL
mAb (s5#34); in buffer
  dcELISA IC50: 0.063 ng/mL
pAb
  dcELISA (pAb) IC50: 0.077 ng/mL
  dcELISA (pAb) LOD: 0.012 ng/mL
  dcELISA (pAb) linear range: 0.025-0.276 ng/mL
anti-CPPU mAb 14G1–HRP [2]; mAb-HRP 1:400, MB-CPPU-BSA 0.0125 μg/μL
  IC50, MB-based assay optimization: 0.0315 ng/mL (≈ 0.127 nM)
anti-CPPU mAb 14G1–HRP [2]; mAb-HRP 1:800, MB-CPPU-BSA 0.025 μg/μL
  IC50, MB-based assay optimization: 0.0147 ng/mL (≈ 0.0593 nM)
anti-CPPU mAb 14G1–HRP [2]; mAb-HRP 1:1600, MB-CPPU-BSA 0.05 μg/μL
  IC50, MB-based assay optimization: 0.0139 ng/mL (≈ 0.0561 nM)
anti-CPPU mAb 14G1–HRP [2]; mAb-HRP 1:3200, MB-CPPU-BSA 0.10 μg/μL
  IC50, MB-based assay optimization: 0.0132 ng/mL (≈ 0.0533 nM)
anti-CPPU mAb 14G1–HRP [2]; mAb-HRP 1:6400, MB-CPPU-BSA 0.20 μg/μL
  IC50, MB-based assay optimization: 0.0140 ng/mL (≈ 0.0565 nM)
mAb against CPPU
  icELISA IC50: 1.04 ng/mL
  icELISA LOD: 0.16 ng/mL
  icELISA linear range: 0.31 to 3.43 ng/mL
mAb
  icELISA (mAb) LOD: 0.013 ng/mL
  icELISA (mAb) linear range: 0.022 to 0.156 ng/mL
zebrafish
  toxic effects in zebrafish: cardiac morphology deformation, cardiac contractile dysfunction, and erythrocyte reduction
anti-CPPU mAb 14G1–HRP [1]
  MB-Based Assay CR: 100%
anti-CPPU mAb 14G1–HRP [1]; grape, considering dilution factor of the sample (100-fold)
  estimated LOD in grape, MB-based assay: 0.0168 µg/kg
anti-CPPU mAb 14G1–HRP [1]; kiwifruit, considering dilution factor of the sample (100-fold)
  estimated LOD in kiwifruit, MB-based assay: 0.0191 µg/kg
anti-CPPU mAb 14G1–HRP [1]; optimized conditions
  MB-Based Assay IC50: 0.0061 ng/mL
  MB-based assay LOD: 0.0004 ng/mL
  MB-based assay linear detection range (IC20–IC80): 0.0016 to 0.0259 ng/mL
anti-CPPU mAb 14G1; 5% methanol, Figure S2c
  icELISA IC50 during optimization: 0.0372 ng/mL
anti-CPPU mAb 14G1
  icELISA CR: 100%
anti-CPPU mAb 14G1; optimal assay conditions
  icELISA IC50: 0.0253 ng/mL
  icELISA limit of detection (LOD, IC10): 0.002 ng/mL
  icELISA linear range (IC20–IC80): 0.005 to 0.231 ng/mL
rats
  toxic effects in rats: potential adverse effects on the ovaries and on the production of steroid hormones
mAb, P6#42
  LFIA IC50: 0.286 ng/mL
  LFIA LOD: 0.045 ng/mL
  LFIA linear range: 0.089 to 0.916 ng/mL

## CON(C)C(=O)Nc1ccc(Cl)c(Cl)c1 [Linuron]
anti-CPPU mAb 14G1–HRP [1]
  MB-Based Assay CR: <0.6%
anti-CPPU mAb 14G1–HRP [1]; optimized conditions
  MB-Based Assay IC50: >1.0 ng/mL
anti-CPPU mAb 14G1
  icELISA CR: <1.0%
anti-CPPU mAb 14G1; optimal assay conditions
  icELISA IC50: >2.5 ng/mL

## O=C(Nc1ccccc1)Nc1cnns1 [Thidiazuron]
mAb (s5#34); mAb s5#34
  dcELISA cross-reactivity (CR): 71%
anti-CPPU mAb 14G1–HRP [1]
  MB-Based Assay CR: <0.6%
anti-CPPU mAb 14G1–HRP [1]; listed as thidiazuron
  MB-Based Assay CR: negligible cross-reaction
anti-CPPU mAb 14G1–HRP [1]; optimized conditions
  MB-Based Assay IC50: >1.0 ng/mL
anti-CPPU mAb 14G1
  icELISA CR: <1.0%
anti-CPPU mAb 14G1; listed as thidiazuron
  icELISA CR: negligible cross-reaction
anti-CPPU mAb 14G1; optimal assay conditions
  icELISA IC50: >2.5 ng/mL
